This passage reports IC50 results from patent US9714224B2, “Heterocyclic compounds and methods of their use” (Novartis AG, priority 2013, dated 2017).

The target of this assay is AT2 receptor (Homo sapiens (Human), UniProt P50052). Description: AT2 receptor binding assay ([125I]-CGP42112A displacement, HEK293/AT2 receptor cell membranes). Particulars: membranes of HEK293 cells transiently transfected with AT2 receptor; radioligand [125I]-CGP42112A; RT, 1.5 hrs. How it is done:
Biological Example 1: AT2 Receptor Binding
• 1. Trypsin-EDTA (for preparation of 100 mL) • Trypsin 0.25 g • 2% EDTA 2 mL • PBS 98 mL • Dissolve trypsin in 2% EDTA and PBS completely; sterilize the solution by passing through a […] membrane filter; store at 4° C. • 2. DMEM medium (for preparation of IL) • The powder was dissolved into 950 mL of distilled water with gentle stirring until the solution becomes clear. • Add NaHCO3 1.176 g for DMEM medium. • Adjust pH of medium to 0.2-0.3 below final working pH using 1 M NaOH or 1 M HCl. Add slowly with stirring. • Dilute to 1 liter with ddH2O. • Sterilize the medium immediately by filtration. • Store at 4° C. • 3. TE buffer • 20 mM Tris-HCl, pH 7.4. • 5 mM EDTA • 4. Binding Assay Buffer • 50 mM HEPES, pH 7.4 • 5 mM MgCl2 • 1 mM CaCl2 • 0.2% BSA • 5. […] Cells were ready for transfection after overnight incubation (the confluence reaches around 80%). • 75 μL Lipofectamine™ 2000 diluted in 6.25 mL OptiMEM I Reduced Serum Medium, was mixed gently, and incubated at room temperature for 5 minutes, 50 μg expression plasmid DNA diluted in 6.25 mL OptiMEM I Reduced Serum Medium without serum was mixed gently. • After the 5 minute incubation, the diluted DNA was combined with the diluted Lipofectamine™ 2000 (total volume is 12.5 mL). […]

AT2 receptor, sequence (P50052 whole entry, species assumed): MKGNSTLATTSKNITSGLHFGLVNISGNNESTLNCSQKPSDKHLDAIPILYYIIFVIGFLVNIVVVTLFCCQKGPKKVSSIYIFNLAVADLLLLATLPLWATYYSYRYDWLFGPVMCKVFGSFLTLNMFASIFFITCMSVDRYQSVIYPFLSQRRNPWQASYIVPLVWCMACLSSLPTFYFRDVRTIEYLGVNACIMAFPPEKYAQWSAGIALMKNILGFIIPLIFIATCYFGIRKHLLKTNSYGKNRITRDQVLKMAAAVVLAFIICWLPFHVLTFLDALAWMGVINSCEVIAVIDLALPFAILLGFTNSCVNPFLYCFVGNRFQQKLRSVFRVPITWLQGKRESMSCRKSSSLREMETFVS

For the compound `COc1ccc2c(c1O)C[C@@H](C(=O)NS(=O)(=O)N(C)C)N(C(=O)C(c1ccccc1)c1ccccc1)C2` [Compound 41], the IC50 was found to be 1790 nM.

The compound `COc1ccc2c(c1OCc1ccccc1)CC(C(=O)O[C@@H]1O[C@H](C(=O)O)[C@@H](O)[C@H](O)[C@H]1O)N(C(=O)C(c1ccccc1)c1ccccc1)C2` (some centres unmarked) [Compound 33] registered an IC50 of 431 nM.

The term IC50 denotes the concentration at which inhibition is half-maximal.
